Laboratory results: PubChem BioAssay (NCI)
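Step 1: Grow cells in 96-well plates. Step 2: Expose to compound for 48 hours at 5 concentrations. Step 3: Interpolate endpoints linearly; if unreached, use highest concentration. The concentration for 50% growth inhibition is given as GI50. TGI: total growth inhibition.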

Columns and labels:
Assay in all cases: DTP human tumour cell line panel, 48 h
SK-MEL-5 melanoma = tested on: SK-MEL-5 melanoma
SN12C renal = tested on: SN12C renal
K-562 leukemia = tested on: K-562 leukemia
HL-60(TB) leukemia = tested on: HL-60(TB) leukemia
DU-145 prostate = tested on: DU-145 prostate
U251 CNS = tested on: U251 CNS
786-0 renal = tested on: 786-0 renal
EKVX NSCLC = tested on: EKVX NSCLC
HS 578T breast = tested on: HS 578T breast
ACHN renal = tested on: ACHN renal
SK-MEL-2 melanoma = tested on: SK-MEL-2 melanoma
NCI-H23 lung = tested on: NCI-H23 lung
SF-539 CNS = tested on: SF-539 CNS
UACC-62 melanoma = tested on: UACC-62 melanoma
BT-549 breast = tested on: BT-549 breast
SK-MEL-28 melanoma = tested on: SK-MEL-28 melanoma
IGROV1 ovarian = tested on: IGROV1 ovarian
MOLT-4 leukemia = tested on: MOLT-4 leukemia
SF-268 CNS = tested on: SF-268 CNS
NCI/ADR-RES ovarian = tested on: NCI/ADR-RES ovarian
PC-3 prostate = tested on: PC-3 prostate
M14 melanoma = tested on: M14 melanoma
T-47D breast = tested on: T-47D breast
MDA-MB-231 breast = tested on: MDA-MB-231 breast
SR leukemia = tested on: SR leukemia
HCT-116 colon = tested on: HCT-116 colon
NCI-H226 lung = tested on: NCI-H226 lung
RXF 393 renal = tested on: RXF 393 renal
HCT-15 colon = tested on: HCT-15 colon
SNB-75 CNS = tested on: SNB-75 CNS
A549 NSCLC = tested on: A549 NSCLC
NCI-H522 lung = tested on: NCI-H522 lung
UACC-257 melanoma = tested on: UACC-257 melanoma
OVCAR-5 ovarian = tested on: OVCAR-5 ovarian
HCC-2998 colon = tested on: HCC-2998 colon
HOP-62 NSCLC = tested on: HOP-62 NSCLC
CCRF-CEM leukemia = tested on: CCRF-CEM leukemia
OVCAR-4 ovarian = tested on: OVCAR-4 ovarian
OVCAR-8 ovarian = tested on: OVCAR-8 ovarian
RPMI-8226 leukemia = tested on: RPMI-8226 leukemia
CAKI-1 renal = tested on: CAKI-1 renal
MDA-MB-435 = tested on: MDA-MB-435
SK-OV-3 ovarian = tested on: SK-OV-3 ovarian
HT29 colon = tested on: HT29 colon
TK-10 renal = tested on: TK-10 renal
SNB-19 CNS = tested on: SNB-19 CNS
MALME-3M melanoma = tested on: MALME-3M melanoma
SF-295 CNS = tested on: SF-295 CNS
MCF7 breast = tested on: MCF7 breast
SW-620 colon = tested on: SW-620 colon
LOX IMVI melanoma = tested on: LOX IMVI melanoma
HOP-92 NSCLC = tested on: HOP-92 NSCLC
OVCAR-3 ovarian = tested on: OVCAR-3 ovarian
A498 renal = tested on: A498 renal
COLO 205 colon = tested on: COLO 205 colon
NCI-H460 lung = tested on: NCI-H460 lung
KM12 colon = tested on: KM12 colon
UO-31 renal = tested on: UO-31 renal

O=C(N/N=C/c1ccc([N+](=O)[O-])s1)c1[nH]c2ccc(Br)cc2c1-c1ccccc1
GI50 (SK-MEL-5 melanoma): 605 nM
TGI (SK-MEL-5 melanoma): 1290 nM
GI50 (SN12C renal): 885 nM
TGI (SN12C renal): 3130 nM
GI50 (K-562 leukemia): 365 nM
TGI (K-562 leukemia): 14200 nM
GI50 (HL-60(TB) leukemia): 723 nM
TGI (HL-60(TB) leukemia): 1940 nM
GI50 (DU-145 prostate): 1140 nM
TGI (DU-145 prostate): > 55400 nM
GI50 (U251 CNS): 716 nM
TGI (U251 CNS): 3030 nM
GI50 (786-0 renal): 1300 nM
TGI (786-0 renal): 19200 nM
GI50 (EKVX NSCLC): 1720 nM
TGI (EKVX NSCLC): 8290 nM
GI50 (HS 578T breast): 943 nM
TGI (HS 578T breast): 12900 nM
GI50 (ACHN renal): 883 nM
GI50 (SK-MEL-2 melanoma): 769 nM
TGI (SK-MEL-2 melanoma): 2540 nM
GI50 (NCI-H23 lung): 1180 nM
TGI (NCI-H23 lung): 18800 nM
GI50 (SF-539 CNS): 515 nM
TGI (SF-539 CNS): 1510 nM
GI50 (UACC-62 melanoma): 401 nM
TGI (UACC-62 melanoma): 3980 nM
GI50 (BT-549 breast): 747 nM
TGI (BT-549 breast): 2670 nM
GI50 (SK-MEL-28 melanoma): 995 nM
TGI (SK-MEL-28 melanoma): > 34200 nM
GI50 (IGROV1 ovarian): 932 nM
TGI (IGROV1 ovarian): > 50900 nM
GI50 (MOLT-4 leukemia): 1070 nM
TGI (MOLT-4 leukemia): 16600 nM
GI50 (SF-268 CNS): 1840 nM
TGI (SF-268 CNS): > 100000 nM
GI50 (NCI/ADR-RES ovarian): 458 nM
GI50 (PC-3 prostate): 967 nM
GI50 (M14 melanoma): 627 nM
TGI (M14 melanoma): 2030 nM
GI50 (T-47D breast): 2350 nM
TGI (T-47D breast): > 91300 nM
GI50 (MDA-MB-231 breast): 881 nM
TGI (MDA-MB-231 breast): 2850 nM
GI50 (SR leukemia): 391 nM
TGI (SR leukemia): 10600 nM
GI50 (HCT-116 colon): 816 nM
TGI (HCT-116 colon): 4700 nM
GI50 (NCI-H226 lung): 716 nM
TGI (NCI-H226 lung): 2780 nM
GI50 (RXF 393 renal): 354 nM
TGI (RXF 393 renal): 9220 nM
GI50 (HCT-15 colon): 706 nM
TGI (HCT-15 colon): 2720 nM
GI50 (SNB-75 CNS): 320 nM
TGI (SNB-75 CNS): 5710 nM
GI50 (A549 NSCLC): 1070 nM
TGI (A549 NSCLC): 12900 nM
GI50 (NCI-H522 lung): 115 nM
TGI (NCI-H522 lung): 535 nM
GI50 (UACC-257 melanoma): 916 nM
TGI (UACC-257 melanoma): 9150 nM
GI50 (OVCAR-5 ovarian): 1140 nM
TGI (OVCAR-5 ovarian): 27200 nM
GI50 (HCC-2998 colon): 787 nM
TGI (HCC-2998 colon): 2120 nM
GI50 (HOP-62 NSCLC): 1070 nM
TGI (HOP-62 NSCLC): 6970 nM
GI50 (CCRF-CEM leukemia): 1220 nM
TGI (CCRF-CEM leukemia): 99600 nM
GI50 (OVCAR-4 ovarian): 1630 nM
TGI (OVCAR-4 ovarian): > 46900 nM
GI50 (OVCAR-8 ovarian): 756 nM
TGI (OVCAR-8 ovarian): 2080 nM
GI50 (RPMI-8226 leukemia): 912 nM
TGI (RPMI-8226 leukemia): 8560 nM
GI50 (CAKI-1 renal): 1510 nM
TGI (CAKI-1 renal): > 26100 nM
GI50 (MDA-MB-435): 323 nM
TGI (MDA-MB-435): 918 nM
GI50 (SK-OV-3 ovarian): 1690 nM
TGI (SK-OV-3 ovarian): > 53500 nM
GI50 (HT29 colon): 858 nM
TGI (HT29 colon): 2800 nM
GI50 (TK-10 renal): 2970 nM
TGI (TK-10 renal): > 49800 nM
GI50 (SNB-19 CNS): 961 nM
TGI (SNB-19 CNS): > 32300 nM
GI50 (MALME-3M melanoma): 800 nM
TGI (MALME-3M melanoma): 4500 nM
GI50 (SF-295 CNS): 596 nM
TGI (SF-295 CNS): 12200 nM
GI50 (MCF7 breast): 741 nM
TGI (MCF7 breast): > 32400 nM
GI50 (SW-620 colon): 768 nM
TGI (SW-620 colon): 8530 nM
GI50 (LOX IMVI melanoma): 487 nM
TGI (LOX IMVI melanoma): 12700 nM
GI50 (HOP-92 NSCLC): 851 nM
TGI (HOP-92 NSCLC): 4610 nM
GI50 (OVCAR-3 ovarian): 1060 nM
TGI (OVCAR-3 ovarian): 9860 nM
GI50 (A498 renal): > 34700 nM
TGI (A498 renal): > 92100 nM
GI50 (COLO 205 colon): 578 nM
TGI (COLO 205 colon): 1140 nM
GI50 (NCI-H460 lung): 820 nM
TGI (NCI-H460 lung): 3030 nM
GI50 (KM12 colon): 1080 nM
TGI (KM12 colon): 5470 nM
GI50 (UO-31 renal): 1040 nM
TGI (UO-31 renal): > 33400 nM
